Our source for the IC50 and GI50 values is patent publication US20210403485A1, “PYRAZOLOPYRIMIDINE DERIVATIVE AS SELECTIVE TRK INHIBITOR” (SHANDONG LUYE PHARMACEUTICAL CO., LTD., priority 2018, published 2021).

Structures are written as SMILES. A value given as a limit tells only on which side of the number the result lay.

One experiment has as its target T1, TrkA (Homo sapiens, UniProt P04629).
T1 construct: purchased Reaction Biology Corp
Briefly: Kinase inhibitory activity (33P-ATP, filtration-binding method, Reaction Biology Corp.). Type of experiment: biochemical. To be noted: read-out: Half maximal inhibitory concentration IC50 for kinases, TrkA. How it is done: (§1) The mixture was incubated at room temperature for 20 minutes, added with ^33P-ATP at a certain concentration to start the reaction, and then incubated at room temperature for 120 minutes. Finally, the radioactivity of the reactant was detected by the filtration-binding method. The final kinase activity was expressed as the ratio of the remaining kinase activity in the test sample to the kinase activity of the DMSO control. The dose-response curves were fitted and IC50 values were calculated by GraphPad software.

Another experiment addresses T2, TrkA-G667C (Homo sapiens, UniProt P04629, G667C).
T2 construct: purchased Reaction Biology Corp
The experiment is described as above. Type of experiment: biochemical. To be noted: read-out: Half maximal inhibitory concentration IC50 for kinases, TrkA-G667C. The method, then: as §1

The next experiment addresses T3, ALK (Homo sapiens, UniProt Q9UM73).
T3 construct: purchased Reaction Biology Corp
The experiment is described as above. Type of experiment: biochemical. To be noted: read-out: Half maximal inhibitory concentration IC50 for kinases, ALK. How it is done:
as §1

A further experiment addresses T4, Ros1 (Homo sapiens, UniProt P08922).
T4 construct: purchased Reaction Biology Corp
Described as above. In kind it is biochemical. To be noted: read-out: Half maximal inhibitory concentration IC50 for kinases, Ros1. The method, then: as §1

Another experiment deals with T5, TrkA-G595R (Homo sapiens, UniProt P04629, G595R).
T5 construct: purchased Reaction Biology Corp
The experiment is described as above. Type of experiment: biochemical. The following applies: read-out: Half maximal inhibitory concentration IC50 for kinases, TrkA-G595R. How it is done: as §1

For another experiment, the target named is T6, TrkC (Homo sapiens, UniProt Q16288).
T6 construct: purchased Reaction Biology Corp
Described as above. Type of experiment: biochemical. To be noted: read-out: Half maximal inhibitory concentration IC50 for kinases, TrkC. How it is done: as §1

In another experiment the target is T7, BaF3 ETV6-NTRK3-G623R (Homo sapiens, UniProt Q16288, G623R, cells depend on it).
T7 construct: fused on or other part: N-terminal part of ETV6 (TEL) as fusion partner (part of the key); P41212 (Transcription factor ETV6)
In words: Inhibitory activity against cell proliferation (CellTiter-Glo, 72 hours). Type of experiment: cell-based. To be noted: read-out: Half maximal inhibitory concentration IC50 of cells, BaF3 ETV6-NTRK3-G623R. The method, then: (§2) Adenosine Triphosphate (ATP) is an energy carrier commonly used in various life activities in nature, and is the minimum unit for energy storage and transfer. The CellTiter-Glo™ cell viability assay kit uses luciferase as an assay agent, which requires the involvement of ATP in luminescence. The CellTiter-Glo™ reagent is added into cell culture medium to measure the luminescence value. The luminescence signal is directly proportional to the amount of ATP in the system, and the ATP is positively correlated with the number of viable cells. Therefore, the proliferation of cells can be detected by detecting the ATP content using the CellTiter-Glo kit. In this test, the cell lines used are Ba/F3 LMNA-NTRK1-WT, Ba/F3 LMNA-NTRK1-F589L, BaF3 LMNA-NTRK1-G595R, BaF3 LMNA-NTRK1-G667A, BaF3 ETV6-NTRK3-WT, BaF3 ETV6-NTRK3-G623R, and Ba/F3 SLC34A2-ROS1-WT stable cell strains, 5000 cells/well.
(§3) a) Cells in the logarithmic growth phase were collected and counted using a […]. The cell viability was detected by the trypan blue exclusion method, and the cell viability was kept over 90%.
(§4) b) The cell concentration was adjusted; 90 μL of the cell suspension was added to a 96-well plate.
c) Cells in the 96-well plate were incubated overnight at 37° C. with 5% CO2 and 95% humidity.
(§5) a) A 10-fold compound solution was prepared, with the highest concentration being 10 μM (a total of 9 concentrations, 3-fold dilution). 10 μL of compound solution was added to each well of a 96-well plate inoculated with cells, and three duplicate wells were set for each compound concentration.
b) The cells in the 96-well plate added with compound were incubated for 72 hours at 37° C. with 5% CO2 and 95% humidity, followed by the CTG (CellTiter-Glo) analysis.
(§6) a) The CTG reagent was thawed and the cell plate was equilibrated to room temperature for 30 minutes.
(§7) b) An equal volume of CTG solution was added to each well.
(§8) c) The plate was shaken on an orbital shaker for 5 minutes to lyse the cells.
(§9) d) The cell plate was placed at room temperature for 20 minutes to stabilize the luminescence signal.
(§10) e) The luminescence value was read.
(§11) The data were analyzed using GraphPad Prism 5.0 software, fitted with nonlinear S-curve regression to give dose-response curves, and IC50 values were calculated therefrom.
A general note: Cellular ATP, detected with luciferase, serves as a proxy for viable cell number.

A further experiment has as its target T8, Ba/F3 LMNA-NTRK1-WT (Homo sapiens, UniProt P04629).
T8 construct: fused on or other part: N-terminal part of LMNA as fusion partner (part of the key); P02545 (Prelamin-A/C)
The description is as above. In kind it is cell-based. To be noted: read-out: Half maximal inhibitory concentration IC50 of cells, Ba/F3 LMNA-NTRK1-WT. How it is done:
as §2, with “kit.” for “kit. In this test, the cell lines used are Ba/F3 LMNA-NTRK1-WT, Ba/F3 LMNA-NTRK1-F589L, BaF3 LMNA-NTRK1-G595R, BaF3 LMNA-NTRK1-G667A, BaF3 ETV6-NTRK3-WT, BaF3 ETV6-NTRK3-G623R, and Ba/F3 SLC34A2-ROS1-WT stable cell strains, 5000 cells/well.”
as §3, §4, §5, §6, §7, §8, §9, §10, §11

Another experiment concerns the target T9, Ba/F3 SLC34A2-ROS1-WT (Homo sapiens, UniProt P08922).
T9 construct: fused on or other part: N-terminal part of SLC34A2 as fusion partner (part of the key); O95436 (Sodium-dependent phosphate transport protein 2B)
The description is as above. In kind it is cell-based. The following applies: read-out: Half maximal inhibitory concentration IC50 of cells, Ba/F3 SLC34A2-ROS1-WT. How it is done: as §2, with “kit.” for “kit. In this test, the cell lines used are Ba/F3 LMNA-NTRK1-WT, Ba/F3 LMNA-NTRK1-F589L, BaF3 LMNA-NTRK1-G595R, BaF3 LMNA-NTRK1-G667A, BaF3 ETV6-NTRK3-WT, BaF3 ETV6-NTRK3-G623R, and Ba/F3 SLC34A2-ROS1-WT stable cell strains, 5000 cells/well.”
as §3, §4, §5, §6, §7, §8, §9, §10, §11

The next experiment has as its target T10, BaF3 LMNA-NTRK1-G595R (Homo sapiens, UniProt P04629, G595R, cells depend on it).
T10 construct: fused on or other part: N-terminal part of LMNA as fusion partner (part of the key); P02545 (Prelamin-A/C)
The experiment is described as above. To be noted: read-out: Half maximal inhibitory concentration IC50 of cells, BaF3 LMNA-NTRK1-G595R. In kind it is cell-based. How it is done: as §2, with “kit.” for “kit. In this test, the cell lines used are Ba/F3 LMNA-NTRK1-WT, Ba/F3 LMNA-NTRK1-F589L, BaF3 LMNA-NTRK1-G595R, BaF3 LMNA-NTRK1-G667A, BaF3 ETV6-NTRK3-WT, BaF3 ETV6-NTRK3-G623R, and Ba/F3 SLC34A2-ROS1-WT stable cell strains, 5000 cells/well.”
as §3, §4, §5, §6, §7, §8, §9, §10, §11

T1 sequence (P04629 33-796): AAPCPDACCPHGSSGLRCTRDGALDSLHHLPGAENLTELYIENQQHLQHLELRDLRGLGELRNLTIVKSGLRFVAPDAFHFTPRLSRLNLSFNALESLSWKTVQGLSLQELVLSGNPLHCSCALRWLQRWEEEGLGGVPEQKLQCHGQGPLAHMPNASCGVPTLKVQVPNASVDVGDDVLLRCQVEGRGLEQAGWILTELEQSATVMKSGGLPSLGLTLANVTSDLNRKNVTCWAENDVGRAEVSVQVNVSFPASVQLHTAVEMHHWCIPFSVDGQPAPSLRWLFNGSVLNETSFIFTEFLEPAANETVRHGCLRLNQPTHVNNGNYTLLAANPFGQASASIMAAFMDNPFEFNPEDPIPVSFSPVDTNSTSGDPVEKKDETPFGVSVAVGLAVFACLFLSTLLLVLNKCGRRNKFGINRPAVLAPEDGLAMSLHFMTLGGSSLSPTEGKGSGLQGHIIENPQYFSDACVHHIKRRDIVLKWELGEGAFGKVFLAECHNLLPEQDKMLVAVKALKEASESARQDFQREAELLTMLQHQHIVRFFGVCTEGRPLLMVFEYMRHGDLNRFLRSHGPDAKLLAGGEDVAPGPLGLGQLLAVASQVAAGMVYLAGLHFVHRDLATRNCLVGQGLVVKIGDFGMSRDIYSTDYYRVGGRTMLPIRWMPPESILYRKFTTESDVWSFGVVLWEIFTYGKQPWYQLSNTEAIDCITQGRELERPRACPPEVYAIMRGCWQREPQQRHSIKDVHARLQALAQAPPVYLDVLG
T3 sequence (Q9UM73 19-1620): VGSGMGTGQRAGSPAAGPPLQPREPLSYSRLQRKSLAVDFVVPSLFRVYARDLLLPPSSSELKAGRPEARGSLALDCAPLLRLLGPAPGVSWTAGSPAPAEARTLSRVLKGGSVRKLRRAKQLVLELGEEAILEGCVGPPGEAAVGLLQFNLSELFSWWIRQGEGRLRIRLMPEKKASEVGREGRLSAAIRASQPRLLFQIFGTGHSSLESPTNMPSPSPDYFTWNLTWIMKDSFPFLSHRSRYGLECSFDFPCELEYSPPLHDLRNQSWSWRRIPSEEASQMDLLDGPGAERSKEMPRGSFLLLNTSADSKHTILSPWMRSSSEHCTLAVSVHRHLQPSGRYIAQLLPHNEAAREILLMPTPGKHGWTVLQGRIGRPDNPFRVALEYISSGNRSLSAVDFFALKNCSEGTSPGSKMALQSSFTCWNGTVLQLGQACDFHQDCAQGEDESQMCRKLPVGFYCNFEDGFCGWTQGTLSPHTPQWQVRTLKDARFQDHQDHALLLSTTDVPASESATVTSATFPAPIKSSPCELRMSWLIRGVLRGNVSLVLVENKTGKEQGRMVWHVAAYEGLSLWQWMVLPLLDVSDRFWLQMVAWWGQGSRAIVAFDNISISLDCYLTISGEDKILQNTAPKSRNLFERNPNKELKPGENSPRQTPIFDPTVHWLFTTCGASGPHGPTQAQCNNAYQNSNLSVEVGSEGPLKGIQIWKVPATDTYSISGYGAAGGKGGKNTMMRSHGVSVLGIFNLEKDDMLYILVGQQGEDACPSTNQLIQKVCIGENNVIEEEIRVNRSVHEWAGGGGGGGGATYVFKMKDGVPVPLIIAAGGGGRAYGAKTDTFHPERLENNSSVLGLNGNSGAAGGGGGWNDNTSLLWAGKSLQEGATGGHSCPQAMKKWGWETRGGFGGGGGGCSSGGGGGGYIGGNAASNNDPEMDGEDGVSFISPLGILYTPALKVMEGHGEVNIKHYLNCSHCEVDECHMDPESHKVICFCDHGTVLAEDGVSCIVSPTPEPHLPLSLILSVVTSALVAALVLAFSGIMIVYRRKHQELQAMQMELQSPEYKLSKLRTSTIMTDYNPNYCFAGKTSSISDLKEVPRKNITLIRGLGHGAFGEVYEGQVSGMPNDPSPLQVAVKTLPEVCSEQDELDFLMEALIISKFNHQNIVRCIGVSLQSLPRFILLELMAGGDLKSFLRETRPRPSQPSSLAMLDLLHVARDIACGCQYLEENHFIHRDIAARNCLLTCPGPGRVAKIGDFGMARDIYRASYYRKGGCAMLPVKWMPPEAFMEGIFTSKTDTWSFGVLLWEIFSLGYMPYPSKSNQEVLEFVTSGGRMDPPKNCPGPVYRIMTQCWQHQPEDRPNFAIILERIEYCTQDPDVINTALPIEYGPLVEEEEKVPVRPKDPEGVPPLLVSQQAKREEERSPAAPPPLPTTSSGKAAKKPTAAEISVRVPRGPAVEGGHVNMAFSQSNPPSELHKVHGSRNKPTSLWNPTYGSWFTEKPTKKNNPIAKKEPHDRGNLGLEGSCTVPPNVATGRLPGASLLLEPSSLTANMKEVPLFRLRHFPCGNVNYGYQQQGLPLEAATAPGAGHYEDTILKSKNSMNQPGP
T4 sequence (P08922 28-2347): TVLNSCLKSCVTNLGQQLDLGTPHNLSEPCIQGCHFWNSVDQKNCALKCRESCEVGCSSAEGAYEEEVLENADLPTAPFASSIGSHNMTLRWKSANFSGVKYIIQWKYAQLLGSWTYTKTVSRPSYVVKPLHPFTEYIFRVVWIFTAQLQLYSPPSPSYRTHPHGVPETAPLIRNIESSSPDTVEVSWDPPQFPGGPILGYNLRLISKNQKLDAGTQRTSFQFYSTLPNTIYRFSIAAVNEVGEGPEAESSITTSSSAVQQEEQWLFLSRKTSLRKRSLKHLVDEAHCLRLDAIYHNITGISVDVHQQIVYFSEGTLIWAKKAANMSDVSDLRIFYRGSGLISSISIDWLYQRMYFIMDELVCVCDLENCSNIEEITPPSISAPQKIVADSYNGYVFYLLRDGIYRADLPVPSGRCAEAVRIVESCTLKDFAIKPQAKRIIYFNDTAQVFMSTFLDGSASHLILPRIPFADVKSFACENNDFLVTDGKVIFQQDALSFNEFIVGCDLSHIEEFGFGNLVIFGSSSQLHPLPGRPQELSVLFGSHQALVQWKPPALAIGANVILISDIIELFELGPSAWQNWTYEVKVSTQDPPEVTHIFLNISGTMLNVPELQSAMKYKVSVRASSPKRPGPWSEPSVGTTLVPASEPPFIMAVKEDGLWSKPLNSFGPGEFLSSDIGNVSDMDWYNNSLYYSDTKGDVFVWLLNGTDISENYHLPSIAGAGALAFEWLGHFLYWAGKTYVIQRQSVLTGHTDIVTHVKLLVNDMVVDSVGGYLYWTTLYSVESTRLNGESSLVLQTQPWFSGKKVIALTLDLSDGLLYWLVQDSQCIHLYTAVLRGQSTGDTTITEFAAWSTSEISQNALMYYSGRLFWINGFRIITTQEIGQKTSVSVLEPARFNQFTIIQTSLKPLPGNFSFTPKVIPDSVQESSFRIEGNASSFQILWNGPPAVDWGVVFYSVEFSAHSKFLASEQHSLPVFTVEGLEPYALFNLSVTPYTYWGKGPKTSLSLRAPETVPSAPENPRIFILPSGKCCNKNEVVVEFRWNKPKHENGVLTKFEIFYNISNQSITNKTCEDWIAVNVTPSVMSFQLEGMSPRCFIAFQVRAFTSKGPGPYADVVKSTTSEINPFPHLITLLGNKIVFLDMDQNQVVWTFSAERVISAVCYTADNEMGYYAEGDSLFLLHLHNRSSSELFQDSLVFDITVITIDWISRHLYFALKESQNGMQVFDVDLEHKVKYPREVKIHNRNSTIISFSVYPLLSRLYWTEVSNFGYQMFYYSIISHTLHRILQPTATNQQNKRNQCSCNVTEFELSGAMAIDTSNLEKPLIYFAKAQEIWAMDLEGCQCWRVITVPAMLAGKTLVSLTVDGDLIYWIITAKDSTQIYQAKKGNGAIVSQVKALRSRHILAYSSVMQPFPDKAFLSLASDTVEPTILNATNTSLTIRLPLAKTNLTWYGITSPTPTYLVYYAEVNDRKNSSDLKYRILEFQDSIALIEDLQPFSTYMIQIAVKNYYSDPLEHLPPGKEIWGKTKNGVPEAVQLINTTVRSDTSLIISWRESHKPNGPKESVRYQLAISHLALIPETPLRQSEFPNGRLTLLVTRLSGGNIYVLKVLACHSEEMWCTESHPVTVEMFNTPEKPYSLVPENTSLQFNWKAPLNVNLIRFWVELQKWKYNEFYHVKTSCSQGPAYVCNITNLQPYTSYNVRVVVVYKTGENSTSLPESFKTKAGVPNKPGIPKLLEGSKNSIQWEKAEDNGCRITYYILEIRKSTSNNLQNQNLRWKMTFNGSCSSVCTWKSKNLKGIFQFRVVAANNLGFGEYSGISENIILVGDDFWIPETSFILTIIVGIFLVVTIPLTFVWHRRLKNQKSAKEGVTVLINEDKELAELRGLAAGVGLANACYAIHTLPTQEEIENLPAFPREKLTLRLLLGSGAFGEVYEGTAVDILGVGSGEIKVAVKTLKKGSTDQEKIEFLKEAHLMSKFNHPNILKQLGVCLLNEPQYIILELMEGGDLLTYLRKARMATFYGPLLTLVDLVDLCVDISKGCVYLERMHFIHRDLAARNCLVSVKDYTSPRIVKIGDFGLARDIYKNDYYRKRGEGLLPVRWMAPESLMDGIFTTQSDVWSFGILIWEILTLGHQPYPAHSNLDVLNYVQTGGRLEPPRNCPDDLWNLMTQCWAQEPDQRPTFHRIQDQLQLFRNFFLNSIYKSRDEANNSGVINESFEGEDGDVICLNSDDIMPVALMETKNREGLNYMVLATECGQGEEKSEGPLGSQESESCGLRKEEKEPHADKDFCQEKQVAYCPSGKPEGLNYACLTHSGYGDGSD
T5 sequence (P04629 33-796 G595R): as the sequence (P04629 33-796) above, with G563R counted along it
T2 sequence (P04629 33-796 G667C): as the sequence (P04629 33-796) above, with G635C counted along it

Turning to `O=C1NC2(CC2)COc2ncc(F)cc2C2COCCN2c2ccn3ncc1c3n2` (single isomer, unassigned) [WX001A], on TrkA, the IC50 is over 1000 nM.
As for `O=C1NC2(CC2)COc2ccc(F)cc2C2CCCCN2c2ccn3ncc1c3n2` (single isomer, unassigned) [WX002A], the IC50 on TrkA-G667C worked out at 0.7 nM; at ALK, 18.5 nM; on Ros1 it was 0.2 nM; at TrkA-G595R, 2.1 nM; on TrkA, 3.2 nM; on TrkC, 0.2 nM. In addition, the GI50 at BaF3 ETV6-NTRK3-G623R is 5.8 nM; on Ba/F3 LMNA-NTRK1-WT it was 0.2 nM; on Ba/F3 SLC34A2-ROS1-WT, 12.6 nM; at BaF3 LMNA-NTRK1-G595R it was 0.4 nM.
As to `O=C1NC2(CC2)CNc2ncc(F)cc2C2COCCN2c2ccn3ncc1c3n2` (single isomer, unassigned) [WX010A], the IC50 was 189 nM on TrkA-G667C; over 1000 nM at ALK; 28.7 nM on Ros1; 8.9 nM on TrkA-G595R; 4.1 nM on TrkA; 0.3 nM on TrkC.
Regarding `O=C1NC2(CC2)CNc2ncc(F)cc2C2COCCN2c2ccn3ncc1c3n2` (single isomer, unassigned) [WX010B], the IC50 at TrkA was over 1000 nM.
Still for that read-out and setting: for `O=C1NC2(CC2)COc2ccc(F)cc2[C@@H]2CCCCN2c2ccn3ncc1c3n2` [WX002B] the value was 526 nM.
